tested on: not given; assay: not given; details: not given

| Compound | melting point |
| --- | --- |
| CCOc1cc(CC)ccc1C1CCN(CCCCNC(=O)c2sc(-c3ccc(C(F)(F)F)cc3)nc2CO)CC1 [Example 4, 4-Hydroxymethyl-2-(4-trifluoromethyl-phenyl)-thiazole-5-carboxylic acid {4-[4-(2-ethoxy-4-ethyl-phenyl)-piperidin-1-yl]-butyl}-amide] | 150 °C |
| COc1c(C2CCN(CCCCNC(=O)c3sc(-c4ccc(C#N)cc4)nc3CO)CC2)ccc2c1CCCC2 [Example 7, 2-(4-Cyano-phenyl)-hydroxymethyl-thiazole-5-carboxylic acid {4-[4-(1-methoxy-5,6,7,8-tetrahydro-naphthalen-2-yl)-piperidin-1-yl]-butyl}-amide] | 212 °C |
| COc1c(C2CCN(CCCCNC(=O)c3sc(-c4ccc(Cl)cc4)nc3C)CC2)ccc2c1CCCC2 [Example 12, 2-(4-Chloro-phenyl)4-methyl-thiazole-5-carboxylic acid {4-[4-(1-methoxy-5,6,7,8-tetrahydro-naphthalen-2-yl)-piperidin-1-yl]-butyl}-amide] | 151 °C |
| COc1c(C2CCN(CCCCNC(=O)c3[nH]nc(-c4ccc(C#N)cc4)c3CO)CC2)ccc2c1CCCC2 [Example 14] | 185 to 186 °C |
| COc1c(C2CCN(CCCCNC(=O)c3oc(-c4ccc(C#N)cc4)nc3C)CC2)ccc2c1CCCC2 [Example 15, 2-(4-Cyano-phenyl)-4-methyl-oxazole-5-carboxylic acid {4-[4-(1-methoxy-5,6,7,8-tetrahydro-naphthalen-2-yl)-piperidin-1-yl]-butyl}amide] | 157 °C |
| COc1c(C2CCN(CCCCNC(=O)c3oc(-c4ccc(C#N)cc4)nc3CO)CC2)ccc2c1CCCC2 [Example 16, 2-(4-Cyano-phenyl)-4-hydroxymethyl-oxazole-5-carboxylic acid {4-[4-(1-methoxy-5,6,7,8-tetrahydro-naphthalen-2-yl)-piperidin-1-yl]-butyl}-amide] | 160 to 162 °C |
| COc1c(C2CCN(CCCCNC(=O)c3ccc(-c4ccc(C(=O)N(C)C)cc4)cc3)CC2)ccc2c1CCCC2 [Example 19] | 170 °C |
| COc1c(C2CCN(CCCCNC(=O)c3ccc(-c4ccc(C(C)=O)s4)cc3)CC2)ccc2c1CCCC2 [Example 20, 4-(5-Acetyl-thiophen-2-yl)-N-{4-[4-(1-methoxy-5,6,7,8-tetrahydro-naphthalen-2-yl)-piperidin-1-yl]-butyl}-benzamide] | 216 to 218 °C |
| COc1c(C2CCN(CCCCNC(=O)c3ccc(-c4ccc(NS(=O)(=O)CC(F)(F)F)cc4)cc3)CC2)ccc2c1CCCC2 [Example 22, 4′-(2,2,2-Trifluoro-ethanesulfonylamino)-biphenyl4-carboxylic acid {4-[4-(1-methoxy 5,6,7,8-tetrahydro-naphthalen-2-yl)-piperidin-1-yl]-butyl}-amide] | 182 to 184 °C |
| COc1c(C2CCN(CCCCNC(=O)c3ccc(-c4ccc(Cl)s4)cc3)CC2)ccc2c1CCCC2 [Example 23, 4-(5-Chloro-thiophen-2-yl)-N-{4-[4-(1-methoxy-5,6,7,8-tetrahydro-naphthalen-2-yl)-piperidin-1-yl]-butyl}-benzamide] | 185 to 187 °C |
| COc1c(C2CCN(CCCCNC(=O)c3ccc(-c4ccc(NS(=O)(=O)C(C)C)cc4)cc3)CC2)ccc2c1CCCC2 [Example 24] | 188 to 190 °C |
| COc1c(C2CCN(CCCCNC(=O)c3ccc(-c4ccc(Cl)cc4)c(O)c3)CC2)ccc2c1CCCC2 [Example 25] | 199 °C |
| COc1c(C2CCN(CCCCNC(=O)c3ccc(-c4ccc(C(=O)C(F)(F)F)cc4)cc3)CC2)ccc2c1CCCC2 [Example 26, 4′-(2,2,2-Trifluoro-acetyl)-biphenyl-4-carboxylic acid {4-[4-(1-methoxy-5,6,7,8-tetrahydro-naphthalen-2-yl)-piperidin-1-yl]-butyl}-amide] | 197 to 199 °C |
| COc1c(C2CCN(CCCCNC(=O)c3ccc(-c4ccc(NC(=O)C(F)(F)F)cc4)cc3)CC2)ccc2c1CCCC2 [Example 29, 4′-(2,2,2-Trifluoro-acetylamino)-biphenyl-4-carboxylic acid {4-[4-(1-methoxy-5,6,7,8-tetrahydro-naphthalen-2-yl)-piperidin-1-yl]-butyl}-amide] | 226 to 228 °C |
| COc1c(C2CCN(CCCCNC(=O)c3ccc(-c4ccc(C#N)cn4)cc3)CC2)ccc2c1CCCC2 [Example 30, 4-(5-Cyano-pyridin-2-yl)-N-{4-[4-(1-methoxy-5,6,7,8-tetrahydro-naphthalen-2-yl)-piperidin-1-yl]-butyl}-benzamide] | 220 to 222 °C |
| COc1c(C2CCN(CCCCNC(=O)c3ccc(-c4ccsc4C#N)cc3)CC2)ccc2c1CCCC2 [Example 31, 4-(2-Cyano-thiophen-3-yl)-N-{4-[4-(1-methoxy-5,6,7,8-tetrahydro-naphthalen-2-yl)-piperidin-1-yl]-butyl}-benzamide] | 236 to 238 °C |
| COc1c(C2CCN(CCCCNC(=O)c3ccc(-c4ccc(Cl)cn4)cc3)CC2)ccc2c1CCCC2 [Example 32, 4-(5-Chloro-pyridin-2-yl)-N-{4-[4-(1-methoxy-5,6,7,8-tetrahydro-naphthalen-2-yl)-piperidin-1-yl]-butyl}-benzamide] | 213 to 215 °C |
| COc1c(C2CCN(CCCCNC(=O)c3ccc(-c4csc(C(C)=O)c4)cc3)CC2)ccc2c1CCCC2 [Example 33, 4-(5-Acetyl-thiophen-3-yl)-N-{4-[4-(1-methoxy-5,6,7,8-tetrahydro-naphthalen-2-yl)-piperidin-1-yl]-butyl}-benzamide] | 208 to 210 °C |
| COc1c(C2CCN(CCCCNC(=O)c3ccc(-c4ccc(Cl)nc4)cc3)CC2)ccc2c1CCCC2 [Example 34] | 202 to 204 °C |
| COc1c(C2CCN(CCCCNC(=O)c3ccc(-c4ccc(Cl)nn4)cc3)CC2)ccc2c1CCCC2 [Example 35, 4-(6-Chloro-pyridazin-3-yl)-N-{4-[4-(1-methoxy-5,6,7,8-tetrahydro-naphthalen-2-yl)-piperidin-1-yl]-butyl}-benzamide] | 192 to 194 °C |
| COc1c(C2CCN(CCCCNC(=O)c3ccc(-c4ccc(C#N)o4)cc3)CC2)ccc2c1CCCC2 [Example 36] | 180 to 182 °C |
| COc1c(C2CCN(CCCCNC(=O)c3ccc(-c4ccc(Cl)cc4)cn3)CC2)ccc2c1CCCC2 [Example 37, 5-(4-Chloro-phenyl)-pyridine-2-carboxylic acid {4-[4-(1-methoxy-5,6,7,8-tetrahydro-naphthalen-2-yl)piperidin-1-yl]-butyl}-amide] | 103 to 105 °C |
| COc1c(C2CCN(CCCCNC(=O)c3ccc(-c4ccc(Cl)cc4)nc3)CC2)ccc2c1CCCC2 [Example 38, 6-(4-Chloro-phenyl)-N-{4-[4-(1-methoxy-5,6,7,8-tetrahydro-naphthalen-2-yl)-piperidin-1-yl]-butyl}-nicotinamide] | 184 to 186 °C |
| COc1c(C2CCN(CCCCNC(=O)c3ccc(-c4ccc(C#N)cc4)nc3)CC2)ccc2c1CCCC2 [Example 39, 6-(4-Cyano-phenyl)-N-{4-[4-(1-methoxy-5,6,7,8-tetrahydro-naphthalen-2-yl)-piperidin-1-yl]-butyl}-nicotinamide] | 166 to 168 °C |
| COc1c(C2CCN(CCCCNC(=O)c3ccc(-c4ccc(Cl)s4)nc3)CC2)ccc2c1CCCC2 [Example 40, 6-(5-Chloro-thiophen-2-yl)-N-{4-[4-(1-methoxy-5,6,7,8-tetrahydro-naphthalen-2-yl)-piperidin-1-yl]-butyl}-nicotinamide] | 175 to 177 °C |
| COc1c(C2CCN(CCCCNC(=O)c3ccc(-c4ccc(C#N)cc4)cn3)CC2)ccc2c1CCCC2 [Example 41, 5-(4-Cyano-phenyl)-pyridine-2-carboxylic acid {4-[4-(1-methoxy-5,6,7,8-tetrahydro-naphthalen-2-yl)-piperidin-1-yl]-butyl}-amide] | 140 °C |
| COc1c(C2CCN(CCCCNC(=O)c3ccc(-c4ccc(C#N)s4)nc3)CC2)ccc2c1CCCC2 [Example 42, 6-(5-Cyano-thiophen-2-yl)-N-{4-[4-(1-methoxy-5,6,7,8-tetrahydro-naphthalen-2-yl)-piperidin-1-yl]-butyl}-nicotinamide] | 186 to 188 °C |
| COc1c(C2CCN(CCCCNC(=O)c3ccc(-c4ccc(C#N)nc4)cc3)CC2)ccc2c1CCCC2 [Example 43, 4-(6-Cyano-pyridin-3-yl)-N-{4-[4-(1-methoxy-5,6,7,8-tetrahydro-naphthalen-2-yl)-piperidin-1-yl]-butyl}-benzamide] | 179 to 181 °C |
| COc1c(C2CCN(CCCCNC(=O)c3ccc(-c4cnc(C#N)nc4)cc3)CC2)ccc2c1CCCC2 [Example 44, 4-(2-Cyano-pyrimidin-5-yl)-N-{4-[4-(1-methoxy-5,6,7,8-tetrahydro-naphthalen-2-yl)-piperidin-1-yl]-butyl}-benzamide] | 202 °C |

tested on: LDL-r promoter and the luciferase reporter gene in HepG2 cells; assay: In vitro assay: induction of luciferase activity in HepG2 cells stably transfected with LDL-r promoter/luciferase reporter construct; format: cell-based; details: Homo sapiens, 24 hours incubation, RPMI medium with 2% lipoprotein-deficient serum, tested 10^-6M to 10^-9M
Method: HepG2 cells, stably transfected with a construct comprising the LDL-r promoter and the luciferase reporter gene, were seeded at 50,000 cells/well in 96 well plates. After 1 day cells were incubated with compounds for 24 hours in RPMI medium containing 2% of lipoprotein-deficient serum. Compounds were tested from 10^−6M to 10^−9M. Cell lysates were prepared and the luciferase activity was measured by the luciferase assay system (Promega). Induction of luciferase activity was calculated taking untreated cells as control. The ED50 of each compounds was determined compared to the ED50 of an internal standard.

| Compound | EC50 |
| --- | --- |
| Cn1cc(C2CCN(CCCCNC(=O)c3ccc(-c4ccc(C(F)(F)F)cc4)c(CO)c3)CC2)c2ccccc21 [Example 1] | 7 nM |
| COc1c(C2CCN(CCCCNC(=O)c3ccc(-c4ccc(Cl)cn4)cc3)CC2)ccc2c1CCCC2 [Example 32, 4-(5-Chloro-pyridin-2-yl)-N-{4-[4-(1-methoxy-5,6,7,8-tetrahydro-naphthalen-2-yl)-piperidin-1-yl]-butyl}-benzamide] | 10 nM |

From patent publication US20060052384A1, “Aryl piperidine derivatives as inducers of ldl-receptor expression for the treatment of hypercholesterolemia” (priority 2002, published 2006)
